In US20120016010A1, “RNA Interference Mediated Inhibition of BTB and CNC Homology 1, Basic Leucine Zipper Transcription Factor 1 (BACH1) Gene Expression Using Short Interfering Nucleic Acid (siNA)” (Merck Sharp & Dohme Corp, priority 2009, published 2012):
[invAb] = inverted abasic unit; d = 2'-deoxy (DNA); m = 2'-O-methyl; r = 2'-OH (RNA); f = 2'-fluoro

How the values were obtained:
Bach1 mRNA [1] = test: Initial screen: Bach1 mRNA knock-down in human A549 cells (96-well transfection, quantitative RT-PCR); assay type: cell-based; conditions: Bach1 mRNA, 10 nM siNA, human A549 cells, n = 2, mean ± S.D., normalized to GAPDH and non-targeting control, 24 hrs post-transfection
Description: (§1) All cells were obtained from ATCC (Manassas, Va.) unless otherwise indicated. Cells were grown and transfected under standard conditions, which are detailed below for each cell line.
(§2) Cells were plated in all wells of a tissue-culture treated, 96-well plate at a final count of 5000 cells/well in 100 μL of the appropriate culture media. The cells were cultured for 24 hours after plating at 37° C. in the presence of 5% CO2.
(§3) After 24 hours, complexes containing siNA and RNAiMax were created as follows: A solution of RNAiMax diluted 33-fold in OPTI-MEM was prepared. […] After incubation of RNAiMax/OPTI-MEM solution at room temperature for 5 min, an equal volume of the siNA solution and the RNAiMax solution were added together for each of the siNAs.
(§4) This solution was incubated at room temperature for 20 minutes. After incubation, 20 uL of the solution was added to each of the relevant wells. The final concentration of siNA in each well was 10 nM and the final volume of RNAiMax in each well was 0.3 ul. […]
(§5) Briefly, a 60 uL (1 plate) or 110 uL (2 plates) of the Lysis Solution with DNase I was dispensed into each well of the Lysis Buffer Plate (twin.tec full skirt plate). The lysis buffer and stop plates were stored at 4° C. until the cells were washed.
(§6) The plate was spun at 1100 rpm for 5 minutes. The culture medium was aspirated and discarded from the wells of the culture plate. The lysis was performed automatically using a BioMek FX instrument and method. After the Biomek method was completed, the lysis plate was incubated for 2 min at room temperature. The lysis plate can be stored for 2 hours at 4° C., or at −20° C. or −80° C. for two months.
(§7) Each well of the reverse transcription plate required 10 uL of 2× reverse transcriptase Buffer, 1 uL of 20× reverse transcription enzyme and 2 uL of nuclease-free water. The reverse transcription master mix was prepared by mixing 2× reverse transcription buffer, 20× reverse transcription enzyme mix, and nuclease-free water. 13 uL of the reverse transcription master mix was dispensed into each well of the reverse transcription plate (semi-skirted). A separate reverse transcription plate was prepared for each cell plate. The plate was loaded onto a Biomek NX or Biomek FX Dual −96 and the Biomek method was run. The program is programmed to automatically added 7 uL of lysate from the cell lysis procedure described above into each well of the reverse transcription plate. The plate is sealed and spun on a centrifuge (1000 rpm for 30 seconds) to settle the contents to the bottom of the reverse transcription plate. The plate is placed in a thermocycler at 37° C. for 60 min, 95° C. for 5 min, and 4° C. until the plate is removed from the thermocycler. Upon removal, if not used immediately, the plate was frozen at −20° C.
(§8) A series of probes and primers were used to detect the various mRNA transcripts of the genes of Bach1, HMOX-1, and GAPDH in mouse and human cell lines. The assays were performed on an ABI 7900 instrument, according to the manufacturer's instructions. […] The PCR reactions were carried out at 50° C. for 2 min, 95° C. for 20 min followed by 40 cycles at 95° C. for 15 secs and 60° C. for 1 min
(§9) Within each experiment, the […] was set in the exponential phase of the amplification curve, and based on the intersection point of the baselines with the amplification curve, a Ct value was assigned by the instrument.
(§10) The expression level of the gene of interest and % knock-down was calculated using Comparative Ct method:
(§11) ΔCt=ΔCt(Target siRNA)−ΔCt(NTC)
(§12) Relative expression level=2^−ΔΔCt
(§13) The non-targeting control siNA was, unless otherwise indicated, chosen as the value against which to calculate the % knock-down, because it is the most relevant control.

Bach1 mRNA [2] = test: Initial screen: Bach1 mRNA knock-down in mouse NIH 3T3 cells (96-well transfection, quantitative RT-PCR); assay type: cell-based; conditions: mouse NIH3T3 cells, n = 2, 24 hrs post-transfection, protocol 10 nM siNA
Description: as §1, §2, §3, §4, §5, §6, §7, §8, §9, §10, §11, §12, §13

Substance	% KD (Bach1 mRNA [1])	% KD (Bach1 mRNA [2])
29963-DC: Bach1 siNA duplex, target site 362; sense B GGAuuuGAAccuuuAAuuc TTB (SEQ 75); antisense GAAuuAAAGGuucAAAuccUU (SEQ 76) (sense GGAUUUGAACCUUUAAUUCTT; antisense GAAUUAAAGGUUCAAAUCCUU; sense: DNA at AGT, 2'-fluoro at CU, [invAb] at 5' end, 3' end, backbone not given here; antisense: sugars from the 5' end rrrffmmmmmfffmmmfffmm, backbone not given here)	32.9 ± 3.4%	18.5 ± 2.2%
29965-DC: Bach1 siNA duplex, target site 596; sense B GAccAGAGGGAucuAGAAA TTB (SEQ 79); antisense UUUcuAGAucccucuGGucUU (SEQ 80) (sense GACCAGAGGGAUCUAGAAATT; antisense UUUCUAGAUCCCUCUGGUCUU; sense: sugars from the 5' end d2 f2 d7 f3 d7, [invAb] at 5' end, 3' end, backbone not given here; antisense: sugars from the 5' end rrrffmmmfffffffmmffmm, backbone not given here)	34.4 ± 3.6%	4.8 ± 6.3%
29966-DC: Bach1 siNA duplex, target site 1375; sense B GGccAAAGAuGGcucAGAA TTB (SEQ 81); antisense UUCuGAGccAucuuuGGccUU (SEQ 82) (sense GGCCAAAGAUGGCUCAGAATT; antisense UUCUGAGCCAUCUUUGGCCUU; sense: DNA at AGT, 2'-fluoro at CU, [invAb] at 5' end, 3' end, backbone not given here; antisense: sugars from the 5' end rrrfmmmffmfffffmmffmm, backbone not given here)	57.3 ± 5.9%	−12.7 ± 7.4%
29967-DC: Bach1 siNA duplex, target site 494 (mouse); sense B GAGuuucuAAGcGuAcAcA TTB (SEQ 83); antisense UGUGuAcGcuuAGAAAcucUU (SEQ 84) (sense GAGUUUCUAAGCGUACACATT; antisense UGUGUACGCUUAGAAACUCUU; sense: DNA at AGT, 2'-fluoro at CU, [invAb] at 5' end, 3' end, backbone not given here; antisense: sugars from the 5' end rrrmfmfmfffmmmmmfffmm, backbone not given here)	34.6 ± 6.7%	34.7 ± 8.4%
29968-DC: Bach1 siNA duplex, target site 671 (mouse); sense B GcAGAuGAAuucuuGGAAA TTB (SEQ 85); antisense UUUccAAGAAuucAucuGcUU (SEQ 86) (sense GCAGAUGAAUUCUUGGAAATT; antisense UUUCCAAGAAUUCAUCUGCUU; sense: DNA at AGT, 2'-fluoro at CU, [invAb] at 5' end, 3' end, backbone not given here; antisense: sugars from the 5' end rrrffmmmmmfffmfffmfmm, backbone not given here)	28.2 ± 3.7%	71 ± 8.7%
29969-DC: Bach1 siNA duplex, target site 1790 (mouse); sense B GAuuuccAAuccuuGuuGA TTB (SEQ 87); antisense UCAAcAAGGAuuGGAAAucUU (SEQ 88) (sense GAUUUCCAAUCCUUGUUGATT; antisense UCAACAAGGAUUGGAAAUCUU; sense: DNA at AGT, 2'-fluoro at CU, [invAb] at 5' end, 3' end, backbone not given here; antisense: sugars from the 5' end rrrmfmmmmmffmmmmmffmm, backbone not given here)	36 ± 7.3%	72.7 ± 4.5%
29970-DC: Bach1 siNA duplex, target site 1472 (mouse); sense B GAGuGucccuGGuuGGGuA TTB (SEQ 89); antisense UACccAAccAGGGAcAcucUU (SEQ 90) (sense GAGUGUCCCUGGUUGGGUATT; antisense UACCCAACCAGGGACACUCUU; sense: DNA at AGT, 2'-fluoro at CU, [invAb] at 5' end, 3' end, backbone not given here; antisense: sugars from the 5' end rrrffmmffmmmmmfmfffmm, backbone not given here)	46.8 ± 5.1%	69.4 ± 4.8%
29971-DC: Bach1 siNA duplex, target site 2488 (mouse); sense B GuAGcuuucuGuuGAGGGA TTB (SEQ 91); antisense UCCcucAAcAGAAAGcuAcUU (SEQ 92) (sense GUAGCUUUCUGUUGAGGGATT; antisense UCCCUCAACAGAAAGCUACUU; sense: sugars from the 5' end rfddffffffdffdddddddd, [invAb] at 5' end, 3' end, backbone not given here; antisense: sugars from the 5' end rrrfffmmfmmmmmmffmfmm, backbone not given here)	23.9 ± 3.8%	75 ± 4.7%
29972-DC: Bach1 siNA duplex, target site 1262 (mouse); sense B GAuuuAuAucuGAAGucuA TTB (SEQ 93); antisense UAGAcuucAGAuAuAAAucUU (SEQ 94) (sense GAUUUAUAUCUGAAGUCUATT; antisense UAGACUUCAGAUAUAAAUCUU; sense: DNA at AGT, 2'-fluoro at CU, [invAb] at 5' end, 3' end, backbone not given here; antisense: sugars from the 5' end rrrmffffmmmfmfmmmffmm, backbone not given here)	−3.3 ± 27.4%	71.7 ± 5.5%
29973-DC: Bach1 siNA duplex, target site 1780 (mouse); sense B cucAcGAAAuGAuuuccAA TTB (SEQ 95); antisense UUGGAAAucAuuucGuGAGUU (SEQ 96) (sense CUCACGAAAUGAUUUCCAATT; antisense UUGGAAAUCAUUUCGUGAGUU; sense: DNA at AGT, 2'-fluoro at CU, [invAb] at 5' end, 3' end, backbone not given here; antisense: sugars from the 5' end rrrmmmmffmffffmfmmmmm, backbone not given here)	−8 ± 11.1%	76.4 ± 5.3%
29974-DC: Bach1 siNA duplex, target site 1739 (mouse); sense B GAGGuGAAGcuGccAuucA TTB (SEQ 97); antisense UGAAuGGcAGcuucAccucUU (SEQ 98) (sense GAGGUGAAGCUGCCAUUCATT; antisense UGAAUGGCAGCUUCACCUCUU; sense: DNA at AGT, 2'-fluoro at CU, [invAb] at 5' end, 3' end, backbone not given here; antisense: sugars from the 5' end rrrmfmmfmmffffmffffmm, backbone not given here)	−4.3 ± 15.5%	−12 ± 6.9%
